According to patent EP3722296B1, “DIHYDRONAPHTHYRIDINES AND RELATED COMPOUNDS USEFUL AS KINASE INHIBITORS FOR THE TREATMENT OF PROLIFERATIVE DISEASES” (Deciphera Pharmaceuticals, LLC, priority 2012, dated 2013):

Legend:
[1] = target: T1, c-KIT D816V kinase (Homo sapiens, UniProt P10721, D816V); experiment: c-KIT D816V kinase Assay; format: biochemical; conditions: enzymatic assay, ATP 200 uM
T1 construct: residues T544-V976 with N-terminal GST fusion; purchased deCODE Biostructures
Summary of the method: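 Coupled assay in which NADH oxidation was tracked as decreasing absorbance at 340 nm, continuously for 5 hours at 30 °C after adding serially diluted compound. Enzyme: cKit residues T544-V976 with N-terminal tag, GST fusion and TEV cleavage site.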

[2] = target: T2, Phospho-KIT (Tyr719) (Homo sapiens, UniProt P10721, K642E); experiment: GIST882 KIT Western Blot; format: cell-based; conditions: GIST882 cells, 4 hours, serum-free medium; read-out: pKIT suppression by western blot analysi GIST 882
T2 construct: endogenous in cells; host or cells: GIST882
Protocol: GIST48, GIST430, and GIST882 cells were obtained from J. Fletcher (Brigham and Women's Hospital, Boston, MA). GIST T1 cells were obtained from B. Rubin (Cleveland Clinic, Cleveland, OH) and Professor Takahiro Taguchi (Kochi Medical School, Nankoku, Kochi, Japan). […] GIST430 cells were grown in Ham's F10 medium supplemented with 15% characterized fetal bovine serum (Invitrogen, Carlsbad, CA), 30 mg/L bovine pituitary extract (BD Biosciences, San Jose, CA), 0.5% Mito+ serum extender (BD Biosciences, San Jose, CA), 1 unit/mL penicillin G, 1 µg/ml streptomycin, and 0.29 mg/mL L-glutamine at 37 °C, 5%CO2, 95% humidity. GIST T1 cells were grown in DMEM medium supplemented with 10% characterized fetal bovine serum (Invitrogen, Carlsbad, CA), 1 unit/mL penicillin G, 1 µg/ml streptomycin, and 0.29 mg/mL L-glutamine at 37 °C, 5% CO2, and 95% humidity.
Two hundred fifty thousand cells were added per well in a 24-well tissue-culture treated plate. […] Medium was aspirated, cells were washed with PBS, and serum-free RPMI1640 medium was added. […] Cells were washed with PBS, then lysed. Cell lysates were separated by SDS-PAGE and transferred to PVDF. Phospho-KIT (Tyr719) was detected using an antibody from Cell Signaling Technology (Beverly, MA), ECL Plus detection reagent (GE Healthcare, Piscataway, NJ) and a Molecular Devices Storm 840 phosphorimager in fluorescence mode. Blots were stripped and probed for total KIT using an antibody from Santa Cruz Biotech (Santa Cruz, CA). IC50 values were calculated using Prism software (Graphpad, San Diego, CA).

[3] = target: c-KIT kinase (Homo sapiens, UniProt P10721); experiment: c-KIT kinase Assay; format: biochemical; design: cKIT residues T544-V976; GST (N); TEV cleavage site (internal); purchased deCODE Biostructures; conditions: enzymatic assay, ATP 200 µM; read-out: KIT (wt) IC50
Summary of the method: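 Activity of wild-type human c-KIT kinase was followed as NADH oxidation, read as falling absorbance at 340 nm on a Synergy 2 plate reader (BioTeK) for 2 hours at 30 °C. Rates from the 0 to 1 h window were compared with an uninhibited control to give percent inhibition. IC50 values were fitted in GraphPad Prism across a range of inhibitor concentrations.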

[4] = target: T3, c-KIT T670I kinase (Homo sapiens, UniProt P10721, T670I); experiment: c-KIT T670I kinase assay; format: biochemical; conditions: enzymatic assay
T3 construct: The construct contains residues T544-V976 of cKit; GST (N); TEV cleavage site (internal); purchased deCODE Biostructures
Summary of the method: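 Coupled spectrophotometric assay following NADH oxidation as absorbance decrease at 340 nm, monitored continuously for 5 h at 30 °C after adding serially diluted compound. Enzyme is a cKit construct with N-terminal tag, GST fusion and TEV site, carrying the T670I mutation.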

[5] = target: T4, c-KIT D816H kinase (Homo sapiens, UniProt P10721, D816H); experiment: c-KIT D816H Kinase Assay; format: biochemical; conditions: enzymatic assay, ATP 200 µM
T4 construct: The construct contains residues T544-V976 of cKit; GST (N); TEV cleavage site (internal); purchased deCODE Biostructures
Summary of the method: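 Coupled spectrophotometric assay following NADH oxidation as absorbance decrease at 340 nm, monitored continuously for 6 hours at 30 °C after adding serially diluted compound. Enzyme: mutant cKit construct with N-terminal tag, GST fusion and TEV cleavage site.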

[6] = tested on: Phospho-KIT (Tyr719); experiment: GIST430 KIT Western Blot; format: cell-based; conditions: GIST430 cells, 4 hours, serum-free medium; read-out: pKIT suppression by western blot analysi GIST430
Summary of the method: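 GIST430 cells were compound-treated in serum-free Ham's F10, then lysed. Phospho-KIT (Tyr719) was measured by western blot with fluorescence-mode ECL, and blots were reprobed for total KIT; IC50 derived from concentration response.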

T3 sequence (P10721 544-976 T670I): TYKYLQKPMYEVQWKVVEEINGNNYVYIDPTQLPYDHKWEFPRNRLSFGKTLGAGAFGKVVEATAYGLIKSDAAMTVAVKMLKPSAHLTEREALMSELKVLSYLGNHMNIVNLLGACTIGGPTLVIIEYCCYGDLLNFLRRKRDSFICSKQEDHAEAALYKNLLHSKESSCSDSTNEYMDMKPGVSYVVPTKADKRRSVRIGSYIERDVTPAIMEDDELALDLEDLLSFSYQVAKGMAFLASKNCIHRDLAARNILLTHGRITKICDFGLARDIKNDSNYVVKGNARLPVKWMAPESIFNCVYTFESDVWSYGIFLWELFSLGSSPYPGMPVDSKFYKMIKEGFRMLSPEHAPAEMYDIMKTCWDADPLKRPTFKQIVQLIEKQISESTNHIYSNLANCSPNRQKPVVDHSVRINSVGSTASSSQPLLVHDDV
T4 sequence (P10721 544-976 D816H): as the sequence (P10721 544-976 T670I) above, with I127T, D273H counted along it
T2 sequence (P10721 26-976 K642E): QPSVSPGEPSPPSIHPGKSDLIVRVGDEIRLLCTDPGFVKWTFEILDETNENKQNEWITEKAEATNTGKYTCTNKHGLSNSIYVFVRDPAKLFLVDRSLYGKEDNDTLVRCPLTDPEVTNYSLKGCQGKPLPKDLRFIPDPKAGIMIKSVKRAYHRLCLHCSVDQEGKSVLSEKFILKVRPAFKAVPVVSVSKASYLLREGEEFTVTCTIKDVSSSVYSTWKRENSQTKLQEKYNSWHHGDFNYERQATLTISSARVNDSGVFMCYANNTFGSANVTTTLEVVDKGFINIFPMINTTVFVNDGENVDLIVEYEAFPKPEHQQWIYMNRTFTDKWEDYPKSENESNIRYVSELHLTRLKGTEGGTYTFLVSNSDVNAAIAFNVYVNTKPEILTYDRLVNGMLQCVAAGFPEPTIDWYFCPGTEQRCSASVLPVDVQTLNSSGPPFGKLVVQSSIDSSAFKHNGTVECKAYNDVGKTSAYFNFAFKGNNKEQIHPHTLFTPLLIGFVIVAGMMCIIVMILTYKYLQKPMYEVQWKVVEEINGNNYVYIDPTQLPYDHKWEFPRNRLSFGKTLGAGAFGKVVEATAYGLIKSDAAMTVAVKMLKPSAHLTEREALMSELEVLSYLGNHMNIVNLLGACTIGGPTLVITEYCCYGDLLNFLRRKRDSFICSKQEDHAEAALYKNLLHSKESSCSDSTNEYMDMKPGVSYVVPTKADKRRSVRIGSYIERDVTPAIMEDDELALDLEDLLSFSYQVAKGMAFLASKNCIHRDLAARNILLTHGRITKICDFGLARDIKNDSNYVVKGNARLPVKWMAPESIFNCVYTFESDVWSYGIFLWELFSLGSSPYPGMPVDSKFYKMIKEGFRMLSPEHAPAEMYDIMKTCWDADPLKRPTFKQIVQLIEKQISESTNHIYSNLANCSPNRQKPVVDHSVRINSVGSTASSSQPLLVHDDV
c-KIT kinase, sequence (P10721 544-976): as the sequence (P10721 544-976 T670I) above, with I127T counted along it
T1 sequence (P10721 544-976 D816V): as the sequence (P10721 544-976 T670I) above, with I127T, D273V counted along it

Compound | IC50 [1] [nM] | IC50 [2] [nM] | IC50 [3] [nM] | IC50 [4] [nM] | IC50 [5] [nM] | IC50 [6] [nM]
CCn1c(=O)c(-c2cc(NC(=O)Nc3ccccc3)c(F)cc2Cl)cc2cnc(NC)cc21 [Example 3, 1-(4-chloro-5-(1-ethyl-7-(methylamino)-2-oxo-1,2-dihydro-1,6-naphthyridin-3-yl)-2-fluorophenyl)-3-phenylurea] | 10 to 100 | 10 to 100 | < 10 | 10 to 100 | < 10 | 
CCn1c(=O)c(-c2cc(NC(=O)Nc3cccc(F)c3F)c(F)cc2Cl)cc2cnc(NC)cc21 [Example 4, 1-(4-chloro-5-(1-ethyl-7-(methylamino)-2-oxo-1,2-dihydro-1,6-naphthyridin-3-yl)-2-fluorophenyl)-3-(2,3-difluorophenyl)urea] | 10 to 100 | < 10 | < 10 | 10 to 100 | < 10 | 10 to 100
CCn1c(=O)c(-c2cc(NC(=O)Nc3cccc4ccccc34)c(F)cc2Cl)cc2cnc(NC)cc21 [Example 6, 1-(4-chloro-5-(1-ethyl-7-(methylamino)-2-oxo-1,2-dihydro-1,6-naphthyridin-3-yl)-2-fluorophenyl)-3-(naphthalen-1-yl)urea] | 10 to 100 | 10 to 100 | < 10 | < 10 | 10 to 100 | < 10
CNc1cc2c(cn1)cc(-c1cc(NC(=O)Nc3ccccc3)c(F)cc1Cl)c(=O)n2C(C)C [Example 22, 1-(4-chloro-2-fluoro-5-(1-isopropyl-7-(methylamino)-2-oxo-1,2-dihydro-1,6-naphthyridin-3-yl)phenyl)-3-phenylurea] | < 10 | 10 to 100 | < 10 | 100 to 1000 | 10 to 100 | 10 to 100
CCn1c(=O)c(-c2cc(NC(=O)Nc3ccccc3)c(F)cc2C)cc2cnc(NC)cc21 [Example 23, 1-(5-(1-ethyl-7-(methylamino)-2-oxo-1,2-dihydro-1,6-naphthyridin-3-yl)-2-fluoro-4-methylphenyl)-3-phenylurea] | 10 to 100 | 10 to 100 | < 10 | 10 to 100 | 10 to 100 | 
CCn1c(=O)c(-c2cc(NC(=O)Nc3ccccc3F)c(F)cc2Cl)cc2cnc(NC)cc21 [Example 25, 1-[4-chloro-5-(1-ethyl-7-methylamino-2-oxo-1,2-dihydro-[1,6]naphthyridin-3-yl)-2-fluoro-phenyl]-3-(2-fluoro-phenyl)-urea] | 10 to 100 | 10 to 100 | < 10 | < 10 | 10 to 100 | 10 to 100
CCn1c(=O)c(-c2cc(NC(=O)Nc3cccc(F)c3)c(F)cc2Cl)cc2cnc(NCCOC)cc21 [Example 28, 1-(4-chloro-5-(1-ethyl-7-(2-methoxyethylamino)-2-oxo-1,2-dihydro-1,6-naphthyridin-3-yl)-2-fluorophenyl)-3-(3-fluorophenyl)urea] | 10 to 100 | 10 to 100 | 10 to 100 | 10 to 100 | 10 to 100 | 10 to 100
CCn1c(=O)c(-c2cc(NC(=O)Nc3cccc(F)c3)c(F)cc2C)cc2cnc(NC)cc21 [Example 44, 1-(5-(1-ethyl-7-(methylamino)-2-oxo-1,2-dihydro-1,6-naphthyridin-3-yl)-2-fluoro-4-methylphenyl)-3-(3-fluorophenyl)urea] | 10 to 100 | 10 to 100 | < 10 | 10 to 100 | < 10 | < 10
CCn1c(=O)c(-c2cc(NC(=O)Nc3ccccc3)c(F)cc2Br)cc2cnc(NCCOC)cc21 [Example 51, 1-(4-bromo-5-(1-ethyl-7-(2-methoxyethylamino)-2-oxo-1,2-dihydro-1,6-naphthyridin-3-yl)-2-fluorophenyl)-3-phenylurea] | 100 to 1000 | 10 to 100 | 10 to 100 | > 1000 |  | 10 to 100
CCn1c(=O)c(-c2cc(NC(=O)Nc3cc(F)ccc3F)c(F)cc2C)cc2cnc(NC)cc21 [Example 61, 1-(2,5-difluorophenyl)-3-(5-(1-ethyl-7-(methylamino)-2-oxo-1,2-dihydro-1,6-naphthyridin-3-yl)-2-fluoro-4-methylphenyl)urea] | 10 to 100 |  | < 10 | < 10 | 100 to 1000 | 10 to 100

More lines, now with the values ahead:

IC50 [1] [nM] | IC50 [2] [nM] | IC50 [3] [nM] | IC50 [4] [nM] | IC50 [5] [nM] | IC50 [6] [nM] | Compound
< 10 | 10 to 100 | < 10 | < 10 | < 10 | 10 to 100 | CCn1c(=O)c(-c2cc(NC(=O)Nc3cccc(F)c3)c(F)cc2Cl)cc2cnc(N)cc21 [Example 20, 1-(5-(7-amino-1-ethyl-2-oxo-1,2-dihydro-1,6-naphthyridin-3-yl)-4-chloro-2-fluorophenyl)-3-(3-fluorophenyl)urea]
< 10 | 10 to 100 | < 10 | < 10 | < 10 | < 10 | CCn1c(=O)c(-c2cc(NC(=O)Nc3cccc(F)c3)c(F)cc2Cl)cc2cnc(NC)cc21 [Example 24, 1-[4-chloro-5-(1-ethyl-7-methylamino-2-oxo-1,2-dihydro-[1,6]naphthyridin-3-yl)-2-fluoro-phenyl]-3-(3-fluoro-phenyl)-urea]
10 to 100 | 100 to 1000 | < 10 | 10 to 100 | 10 to 100 | 10 to 100 | CCn1c(=O)c(-c2cc(NC(=O)Nc3ccccc3)c(F)cc2Cl)cc2cnc(NCCOC)cc21 [Example 27, 1-(4-chloro-5-(1-ethyl-7-(2-methoxyethylamino)-2-oxo-1,2-dihydro-1,6-naphthyridin-3-yl)-2-fluorophenyl)-3-phenylurea]
< 10 | 10 to 100 | < 10 | 10 to 100 | < 10 | < 10 | CCn1c(=O)c(-c2cc(NC(=O)Nc3csc4ccccc34)c(F)cc2Cl)cc2cnc(NC)cc21 [Example 32, 1-(benzo[b]thiophen-3-yl)-3-(4-chloro-5-(1-ethyl-7-(methylamino)-2-oxo-1,2-dihydro-1,6-naphthyridin-3-yl)-2-fluorophenyl)urea]
10 to 100 |  | < 10 | 100 to 1000 | 10 to 100 | 10 to 100 | CCn1c(=O)c(-c2cc(NC(=O)Nc3cc(F)cc(F)c3)c(F)cc2C)cc2cnc(NC)cc21 [Example 60, 1-(3,5-difluorophenyl)-3-(5-(1-ethyl-7-(methylamino)-2-oxo-1,2-dihydro-1,6-naphthyridin-3-yl)-2-fluoro-4-methylphenyl)urea]
10 to 100 |  | < 10 | 10 to 100 | 10 to 100 | 10 to 100 | CCn1c(=O)c(-c2cc(NC(=O)Nc3ccccc3)c(F)cc2Cl)cc2cnc(NC(=O)N3CC(N(C)C)C3)cc21 [Example 102, N-(3-(2-chloro-4-fluoro-5-(3-phenylureido)phenyl)-1-ethyl-2-oxo-1,2-dihydro-1,6-naphthyridin-7-yl)-3-(dimethylamino)azetidine-1-carboxamide]
